Entries after “also recorded” stand apart in the source; their conditions may differ.

The Solubility is how much of the substance goes into solution per volume.

The nature of data set [1]: Solubility (pH 2, pH 7, ethyl acetate). In kind it is physicochemical. The text has this: (§1) In the above table, the physicochemical data, e.g., solubility, were obtained following standard protocols known in the field (see, e.g., Reis et al., Mini Rev Med Chem., 2010, 10(11):1071-6; Avdeef et al., Expert Opin Drug Metab Toxicol., 2005, 1(2):325-42; Bharate et al., Comb Chem High Throughput Screen., 2016, 19(6):461-9; and Jain et al., J Pharm Biomed Anal., 2013, 86:11-35.); and the biochemical data, i.e., potency for ETA/ETB, were obtained following the protocols known in the field (see, e.g., Kirkby et al., Br J Pharmacol., 2008, 153(6):1105-19; and Maguire et al., Br J Pharmacol., 2014, 171(24):5555-72.).

Data set [2] in a line: Permeability (PAMPA). In kind it is in vitro ADME. As to conditions: PAMPA log Pe and PSA.
Text: as §1
A general note: PAMPA measures passive passage across an artificial lipid membrane.

For data set [3], the system named is ET-1 induced vasospasm. Briefly: Rabbit ET-1 induced vasospasm model, retinal blood flow (FA, OCT-A). It counts as in vivo, rabbit (Oryctolagus cuniculus). As for the experimental part:
Adult, male Dutch-belted rabbits were given a 20 μl intravitreal injection (IVT) of 0.5 μg of ET-1 followed by a 20 μl intravitreal injection of 10-100 μg Edonentan given 30 min after the ET-1 administration. IOP, optical coherence tomography-angiography (OCT-A), and fluorescein angiograms (FA) were performed at pre-specified time points (30, 45, 60, and 75 min) following ET-1 and Edonentan administration to assess retinal blood flow changes induced by ET-1+/−Edonentan. […] To evaluate the effect of retinal blood flow following intravitreally administered endothelin-1 (ET-1) followed by the antagonist Edonentan in the rabbit, rabbits (Oryctolagus cuniculus) were given a 20 μL intravitreal injection of ET-1 in the left eye followed by a 20 μL intravitreal injection of Edonentan at 2 (or 3) different doses (e.g. 0.1 μg, 0.5 μg, 2.5 μg). The pulse ox, tonometry, optical coherence tomography angiography (OCTA), fluorescein angiography (FA) and retinal leakage scoring were performed for evaluation.

Data set [4] is described as follows: Pharmacokinetics after topical or oral administration in the rat. It counts as in vivo, Brown Norway rats. The method, then: After the administrations, the animals (N=2) were euthanized at different time points (e.g. 4 and 8 hours) and tissues were collected for analysis. List of tissues collected include plasma, retina/retinal pigment epithelium (RPE)/choroid, vitreous humor and aqueous humor.

Data set [5] in a line: Pharmacokinetics after intravitreal administration in the rabbit. As to conditions: IVT, plasma and ocular tissues. In kind it is in vivo, rabbits (Oryctolagus cuniculus). As for the experimental part: To determine the pharmacokinetic and safety properties of Edonentan following intravitreal administration in the rabbit, rabbits (Oryctolagus cuniculus) received bilateral intravitreal injections (20 μL injection volume/eye). Following the injections, animals were tranquilized with a ketamine/xylazine cocktail, and then the animals were euthanized with an overdose of sodium pentobarbital (Euthasol). Animals designated for the pharmacokinetic analysis were euthanized at different time points (e.g. 12, 16, 24, 36 and 48 hours). At least 1.0 mL of whole blood was drawn from the marginal ear vein or cardiac puncture (terminal bleed only) into K2EDTA tubes for plasma collection and processed for analytical analysis.
Immediately following euthanasia, the eyes was enucleated. Aqueous humor from both eyes was removed via syringe and snap frozen for analysis. Eyes were dissected when frozen to isolate various ocular tissues and minimize drug diffusion to adjacent tissues. Tissues from left and right eyes were collected in separate vials for analysis. List of tissues collected include plasma and aqueous humor, iris/ciliary body (ICB), retina, vitreous humor and RPE/choroid. The pharmacokinetic properties of intravitreally delivered Edonentan in rabbits are shown in FIG. 9A, FIG. 9B, FIG. 9C and FIG. 9D.

A short description of data set [6]: Pharmacokinetics after topical administration in the rabbit. In kind it is in vivo, Dutch-belted rabbits. As to conditions: single eye drop 100 μg, 10 minutes, 2 and 7 hours. The method, then:
To determine the pharmacokinetic properties of Edonentan following topical administration in the rabbit, rabbits (Dutch-belted rabbits) received an eye drop in both eyes (100 μg of Edonentan, 35 μL dose volume/eye). After the administrations, the animals (N=2) were euthanized at different time points (e.g. 10 minutes (immediately after pot-dose), 2 and 7 hours) and tissues were collected for analysis. List of tissues collected include plasma, retina, vitreous humor and bulbar conjunctiva.

The subject of data set [7] is laser-induced glaucoma model. Briefly: Laser-induced non-human primate glaucoma model, ONH blood flow by LSFG after IVT administration. In kind it is in vivo, rhesus macaque, Macaca Mulatta. As for the experimental part:
Non-human primates (rhesus macaque, Macaca Mulatta) were obtained for this study. One eye of each animal underwent induction of elevation of intraocular pressure (IOP) by repeated laser photocoagulation of the trabecular meshwork. Imaging sessions were repeated to monitor the optic nerve head (ONH) and retinal structural changes. A study was performed to compare an experimental glaucoma eye and a contralateral healthy eye (control) of three non-human primates in global average mean blur rate (MBR) and MBR change from baseline over time as an index of ONH blood flow in a laser-induced glaucoma model. More specifically, a vehicle control, 0.02 mg/mL of Edonentan, 0.2 mg/mL of Edonentan, or 2.0 mg/mL of Edonentan was intravitreally administered ([…]) to a glaucomatous eye of each of three non-human primates (rhesus macaque, Macaca Mulatta). These graphs show the ONH blood flow in the three non-human primates after IVT administration of a vehicle alone (FIG. 7A, FIG. 7E, and FIG. 7I), 0.02 mg/mL of Edonentan (FIG. 7B, FIG. 7F, and FIG. 7J), 0.2 mg/mL of Edonentan (FIG. 7C, FIG. 7G, and FIG. 7K) or 2.0 mg/mL of Edonentan (FIG. 7D, FIG. 7H, and FIG. 7L). […] In one of the above three non-human primates, an LSFG scan was performed at various selected time points when Edonentan was administered at 2.0 mg/mL.

Data set [8] relates to ETA/ETB receptor. As to conditions: background statement; cited from earlier work.

As to `Cc1onc(NS(=O)(=O)c2ccccc2-c2ccc(-c3ncco3)cc2CN(C)C(=O)CC(C)(C)C)c1C` [Edonentan, N-[[2′-[[(4,5-dimethyl-3-isoxazolyl)amino]sulfonyl]-4-(2-oxazolyl)[1,1′-biphenyl]-2-yl]methyl]-N,3,3-trimethylbutanamide], the “Solubility in Ethyl Acetate, rating in words” value in data set [1] (ethyl acetate) is “Good”. For the same compound, in data set [1] (pH 2), the “Solubility at pH 2” value is <1 μM. Also, the “Solubility at pH 7, comparison in words” value in data set [1] (pH 7) is “superior to that of A-182086”. In data set [2], the “Permeability, rating in words” value is “Mid-High”. In data set [3] (0.5 μg ET-1 IVT, then 10 μg Edonentan IVT 30 min later), the “ET-1 induced vasospasm / vasoconstriction (fluorescein angiography)” value is “reversed; also recorded: reversal”. For the same compound, the “Time to reversal of the ET-1 effect” value in data set [3] (after ET-1, 10 μg Edonentan IVT (60 min after Edonentan)) is ≤ 90 min. Moreover, in data set [3] (healthy rabbits, 0.5 μg ET-1 and 10 μg antagonist IVT), the “Fluorescein dye velocity as an index of retinal blood flow” value is “improved to control levels”. For the same compound, the “Ocular exposure after topical administration (retina/RPE/choroid, aqueous humor, vitreous humor)” value in data set [4] (eye drop 100 μg, 4 and 8 hours) was “detected; also recorded: permeate through cornea/sclera and achieve retina exposure”. Also, in data set [4] (oral, 17 mg/kg as printed), the “Detection in the aqueous humor after oral administration” value is “detectable”. Moreover, the “Detection in the retina/RPE/choroid and vitreous humor after oral administration” value in data set [4] (oral, 1.7 and 17 mg/kg as printed) is listed as “detectable”. The “t1/2 after intravitreal delivery” value in data set [5] is recorded as “longer t1/2”. Moreover, in data set [6], the “Tissue exposure after topical administration (plasma, retina, vitreous humor, bulbar conjunctiva)” value is “detected in all tissues examined at all timepoints; also recorded: penetrate through ocular layers”. For the same compound, the “ONH blood flow (global average MBR, LSFG), individual animals” value in data set [7] (IVT 0.02, 0.2 or 2.0 mg/mL Edonentan, glaucomatous eye, over 6 hours) is “improvement of ONH blood flow in a dose-dependent manner”. Also, in data set [7] (IVT 0.02, 0.2 or 2.0 mg/mL, experimental glaucoma eyes vs control eyes), the “ONH blood flow, aggregate of three non-human primates” value was “does-related increase of ONH blood flow”. Besides, in data set [8], the “Endothelin receptor antagonism, description in words” value is “highly selective and very potent endothelin A receptor antagonist”.
